Assay results from patent US20060093617A1, “Peptides for inducing a CTL and/or HTL response to hepatitis C virus” (Innogenetics, N.V., priority 2004, published 2006).
Where a SMILES comes first, the peptide text is derived from it.

Assays:
B*0702 = target: T1, B*0702 (Homo sapiens, UniProt P01889); assay: Competition binding assay using soluble HLA class I; details: for Ki: Ki (nM), HLA-B0702 section
T1 construct: endogenous in cells

DRB1*0101 = target: T2, DRB1*0101 (Homo sapiens, UniProt P01903+P01911, A100R/D57E/F55L/F60I/F76Y/I96L/L162R/M171V/P40L/Q125E/R42F/V115G/Y59C); assay: Competition binding assay using soluble HLA class II
T2 construct: endogenous in cells; host or cells: cell lysate

HLA-Cw06 = target: T3, HLA-Cw06 (Homo sapiens, UniProt P10321, A176E/A330V/C350S/L171W/L180W/L218V/M285V/M309V/M331V/N104K/P208H/Q277E/Q291P/R121W/R243W/S101N/S123Y/S297R/T329A/T363A/V319A/V328M); assay: HLA class I competition cell-based binding assay
T3 construct: endogenous in cells

HLA-A02 = HLA-A02 (Homo sapiens, UniProt P04439, D140Y/D185E/D98H/E176V/E277Q/G131W/G231S/I119V/I121R/I166T/I218V/L300P/L318F/N151K/N90K/P208A/P217A/Q86G/Q94H/R138H/R169H/T345S); assay: Competition binding assay using soluble HLA class I

SMILES | Ki (B*0702) [nM] | IC50 (DRB1*0101) [nM] | other results
CSCC[C@H](NC(=O)[C@H](Cc1ccc(O)cc1)NC(=O)[C@H](C)NC(=O)CNC(=O)[C@H](Cc1ccccc1)NC(=O)CNC(=O)[C@H](CC(C)C)NC(=O)[C@@H](NC(=O)[C@H](C)N)[C@@H](C)O)C(=O)O (H-ATLGFGAYM-OH) | 13000 |  | 
CC(C)C[C@H](NC(=O)CNC(=O)[C@H](CC(C)C)NC(=O)[C@H](C)NC(=O)[C@H](CO)NC(=O)[C@H](CC(C)C)NC(=O)[C@H](CCCCN)NC(=O)[C@H](C)NC(=O)[C@H](C)N)C(=O)O (H-AAKLSALGL-OH; N-terminus and C-terminus assumed) | 277 |  | IC50 (B*0702): 277 nM
CC(C)C[C@H](NC(=O)[C@H](CCCNC(=N)N)NC(=O)[C@@H]1CCCN1C(=O)CNC(=O)[C@H](CCCNC(=N)N)NC(=O)[C@H](CCCNC(=N)N)NC(=O)[C@@H]1CCCN1C(=O)[C@@H](N)CC(C)C)C(=O)O | 1 |  | 
CC(C)C[C@H](NC(=O)[C@@H]1CCCN1C(=O)[C@H](C)N)C(=O)NCC(=O)NCC(=O)N[C@@H](C)C(=O)N[C@@H](C)C(=O)N[C@@H](CCCNC(=N)N)C(=O)N[C@@H](C)C(=O)O | 115 |  | IC50 (B*0702): 115 nM
C[C@H](N)C(=O)N1CCC[C@H]1C(=O)N[C@H](C(=O)NCC(=O)N[C@@H](CO)C(=O)NCC(=O)N[C@@H](CCCCN)C(=O)N[C@@H](CO)C(=O)N[C@H](C(=O)O)[C@@H](C)O)[C@@H](C)O (H-APTGSGKST-OH; N-terminus and C-terminus assumed) | 370 |  | IC50 (B*0702): 370 nM
CC(C)C[C@H](NC(=O)[C@H](C)NC(=O)[C@H](CCCNC(=N)N)NC(=O)[C@H](C)NC(=O)[C@H](C)N)C(=O)N[C@@H](C)C(=O)N[C@@H](Cc1c[nH]cn1)C(=O)NCC(=O)N[C@H](C(=O)O)C(C)C (H-AARALAHGV-OH; N-terminus and C-terminus assumed) | 209 |  | 
CC(C)C[C@H](NC(=O)[C@H](CCCCN)NC(=O)[C@H](CCCNC(=N)N)NC(=O)[C@H](CC(C)C)NC(=O)[C@H](CS)NC(=O)[C@H](CO)NC(=O)[C@H](C)N)C(=O)NCC(=O)N[C@H](C(=O)N1CCC[C@H]1C(=O)N1CCC[C@H]1C(=O)N[C@@H](CC(C)C)C(=O)N[C@@H](CCCNC(=N)N)C(=O)N[C@H](C(=O)N[C@@H](Cc1c[nH]c2ccccc12)C(=O)O)C(C)C)C(C)C |  | 4.9 | 
CC(C)C[C@H](NC(=O)[C@H](Cc1c[nH]cn1)NC(=O)[C@H](C)NC(=O)[C@@H](NC(=O)[C@H](CCC(N)=O)NC(=O)[C@H](Cc1ccccc1)NC(=O)[C@@H](NC(=O)[C@H](CCC(N)=O)NC(=O)[C@@H]1CCCN1)[C@@H](C)O)C(C)C)C(=O)N[C@@H](Cc1c[nH]cn1)C(=O)N[C@@H](C)C(=O)N1CCC[C@H]1C(=O)N[C@H](C(=O)NCC(=O)N[C@@H](CO)C(=O)O)[C@@H](C)O |  | 22 | 
CC(C)[C@H](NC(=O)CNC(=O)[C@H](CCCNC(=N)N)NC(=O)[C@@H](NC(=O)[C@H](CS)NC(=O)[C@@H](NC(=O)[C@H](C)NC(=O)[C@H](C)NC(=O)[C@@H](N)CCCNC(=N)N)C(C)C)[C@@H](C)O)C(=O)N[C@@H](C)C(=O)N[C@@H](CCCCN)C(=O)N[C@@H](C)C(=O)N[C@H](C(=O)N[C@@H](CC(=O)O)C(=O)N[C@@H](Cc1ccccc1)C(=O)O)C(C)C |  | 619 | 
CC(C)C[C@H](NC(=O)[C@H](CCCNC(=N)N)NC(=O)[C@H](C)NC(=O)CN)C(=O)N[C@H](C(=O)N[C@H](C(=O)N[C@@H](CC(C)C)C(=O)N[C@@H](C)C(=O)N[C@H](C(=O)N[C@@H](C)C(=O)N[C@H](C(=O)N1CCC[C@H]1C(=O)N1CCC[C@H]1C(=O)NCC(=O)N[C@@H](CO)C(=O)O)[C@@H](C)O)[C@@H](C)O)C(C)C)C(C)C (H-GARLVVLATATPPGS-OH; N-terminus and C-terminus assumed) |  | 173 | 
CC(C)C[C@H](NC(=O)CNC(=O)[C@H](CCCNC(=N)N)NC(=O)[C@H](Cc1ccc(O)cc1)NC(=O)[C@H](Cc1ccc(O)cc1)NC(=O)[C@H](C)NC(=O)[C@@H](N)C(C)C)C(=O)N[C@@H](CC(=O)O)C(=O)N[C@H](C(=O)O)C(C)C | 1420 |  | Ki (HLA-Cw06): 231 nM
CSCC[C@H](NC(=O)CNC(=O)[C@H](CO)NC(=O)[C@@H]1CCCN1C(=O)[C@H](CCCNC(=N)N)NC(=O)[C@H](CCC(=O)O)NC(=O)CNC(=O)[C@@H]1CCCN1C(=O)[C@@H](N)[C@@H](C)O)C(=O)O (H-TPGERPSGM-OH) | 199 |  | IC50 (B*0702): 199 nM
CC(C)C[C@H](NC(=O)[C@@H](NC(=O)[C@H](C)NC(=O)[C@H](C)NC(=O)[C@@H](NC(=O)[C@H](CO)NC(=O)[C@@H]1CCCN1C(=O)[C@H](CC(N)=O)NC(=O)[C@H](CC(C)C)NC(=O)[C@@H](NC(=O)[C@H](CC(C)C)NC(=O)[C@@H](NC(=O)[C@H](CCCCN)NC(=O)[C@H](Cc1ccc(O)cc1)NC(=O)CN)C(C)C)C(C)C)C(C)C)[C@@H](C)O)C(=O)O |  | 8.4 | 
CC[C@H](C)[C@H](NC(=O)[C@@H]1CCCN1C(=O)[C@H](C)NC(=O)[C@H](CC(C)C)NC(=O)[C@H](CC(C)C)NC(=O)[C@H](CCCNC(=N)N)NC(=O)[C@H](Cc1c[nH]c2ccccc12)NC(=O)CNC(=O)[C@H](CCCCN)NC(=O)[C@@H](N)CO)C(=O)N[C@H](C(=O)N[C@@H](C)C(=O)N[C@@H](Cc1ccc(O)cc1)C(=O)N[C@@H](C)C(=O)N[C@@H](CCC(N)=O)C(=O)O)[C@@H](C)O |  | 0.4 | 
CC[C@H](C)[C@H](NC(=O)[C@H](CC(C)C)NC(=O)[C@H](C)NC(=O)CNC(=O)[C@@H](NC(=O)[C@H](Cc1c[nH]c2ccccc12)NC(=O)[C@@H](NC(=O)[C@H](Cc1ccc(O)cc1)NC(=O)[C@@H](N)CO)[C@@H](C)O)[C@@H](C)O)C(=O)N[C@H](C(=O)N1CCC[C@H]1C(=O)N[C@@H](CS)C(=O)N[C@@H](C)C(=O)N[C@@H](C)C(=O)N[C@@H](CCC(=O)O)C(=O)O)[C@@H](C)O |  | 5.63 | 
CC(C)C[C@H](NC(=O)[C@H](CCCNC(=N)N)NC(=O)[C@@H]1CCCN1C(=O)CNC(=O)[C@H](CCCNC(=N)N)NC(=O)[C@H](CCCNC(=N)N)NC(=O)[C@@H]1CCCN1C(=O)[C@@H](N)CC(C)C)C(=O)NCC(=O)O | 124 |  | IC50 (B*0702): 124 nM
CC(C)C[C@H](NC(=O)[C@@H](NC(=O)[C@H](CCCNC(=N)N)NC(=O)[C@@H](NC(=O)CNC(=O)[C@H](Cc1c[nH]cn1)NC(=O)[C@H](C)NC(=O)[C@H](CC(C)C)NC(=O)[C@H](C)N)C(C)C)C(C)C)C(=O)O | 7950 |  | Ki (HLA-Cw06): 3310 nM; Ki (HLA-A02): 627 nM
CC(C)C[C@H](NC(=O)[C@H](CC(N)=O)NC(=O)CNC(=O)[C@@H](NC(=O)[C@H](C)NC(=O)[C@H](Cc1ccc(O)cc1)NC(=O)[C@H](CC(N)=O)NC(=O)[C@@H](NC(=O)CN)C(C)C)[C@@H](C)O)C(=O)N1CCC[C@H]1C(=O)NCC(=O)N[C@@H](CS)C(=O)N[C@@H](CO)C(=O)N[C@@H](Cc1ccccc1)C(=O)N[C@@H](CO)C(=O)O |  | 4560 | 
CC[C@H](C)[C@H](NC(=O)[C@H](Cc1c[nH]cn1)NC(=O)[C@@H](NC(=O)[C@H](CC(C)C)NC(=O)CNC(=O)[C@@H](NC(=O)[C@H](Cc1ccccc1)NC(=O)[C@@H](NC(=O)[C@H](CO)NC(=O)[C@H](CCC(=O)O)NC(=O)[C@@H](N)Cc1c[nH]c2ccccc12)C(C)C)[C@@H](C)O)[C@@H](C)O)C(=O)N[C@@H](CC(=O)O)C(=O)N[C@@H](C)C(=O)N[C@@H](Cc1c[nH]cn1)C(=O)N[C@@H](Cc1ccccc1)C(=O)O |  | 122 | 
CC[C@H](C)[C@H](NC(=O)[C@H](CC(N)=O)NC(=O)CNC(=O)[C@H](CC(C)C)NC(=O)[C@H](Cc1c[nH]c2ccccc12)NC(=O)[C@H](CO)NC(=O)[C@@H](N)CC(N)=O)C(=O)N[C@H](C(=O)N[C@@H](CCSC)C(=O)N[C@@H](Cc1ccc(O)cc1)C(=O)N[C@@H](C)C(=O)N1CCC[C@H]1C(=O)N[C@H](C(=O)N[C@@H](CC(C)C)C(=O)N[C@@H](Cc1c[nH]c2ccccc12)C(=O)O)[C@@H](C)O)[C@@H](C)CC |  | 1.2 | 
CC(C)C[C@H](NC(=O)[C@H](C)NC(=O)CNC(=O)[C@H](C)NC(=O)[C@@H](NC(=O)CNC(=O)[C@H](C)NC(=O)CNC(=O)[C@H](Cc1ccc(O)cc1)NC(=O)CNC(=O)[C@H](C)NC(=O)[C@@H](N)CC(C)C)C(C)C)C(=O)N[C@H](C(=O)N[C@@H](C)C(=O)N[C@@H](Cc1ccccc1)C(=O)O)C(C)C |  | 137 | 
CC(C)[C@H](NC(=O)[C@H](CCCNC(=N)N)NC(=O)[C@H](CCC(N)=O)NC(=O)CNC(=O)[C@@H]1CCCN1C(=O)[C@H](CO)NC(=O)[C@H](Cc1ccc(O)cc1)NC(=O)[C@H](CCC(N)=O)NC(=O)[C@H](Cc1ccccc1)NC(=O)CNC(=O)[C@H](Cc1ccc(O)cc1)NC(=O)[C@H](CO)NC(=O)[C@H](CO)NC(=O)CN)C(=O)N[C@@H](CCC(=O)O)C(=O)O |  | 11 | 
CC[C@H](C)[C@H](NC(=O)[C@H](CC(C)C)NC(=O)[C@H](CC(=O)O)NC(=O)[C@H](C)NC(=O)[C@@H](N)CC(=O)O)C(=O)N[C@@H](CCC(=O)O)C(=O)N[C@@H](C)C(=O)N[C@@H](CC(N)=O)C(=O)N[C@@H](CC(C)C)C(=O)N[C@@H](CC(C)C)C(=O)N[C@@H](Cc1c[nH]c2ccccc12)C(=O)N[C@@H](CCCNC(=N)N)C(=O)N[C@@H](CCC(N)=O)C(=O)N[C@@H](CCC(=O)O)C(=O)N[C@@H](CCSC)C(=O)O |  | 574 | 
CC[C@H](C)[C@H](NC(=O)[C@@H](NC(=O)[C@@H](N)[C@@H](C)O)[C@@H](C)O)C(=O)N[C@@H](CCSC)C(=O)N[C@@H](C)C(=O)N[C@@H](CCCCN)C(=O)N[C@@H](CC(N)=O)C(=O)N[C@@H](CCC(=O)O)C(=O)N[C@H](C(=O)N[C@@H](Cc1ccccc1)C(=O)N[C@@H](CS)C(=O)N[C@H](C(=O)N[C@@H](CCC(N)=O)C(=O)N1CCC[C@H]1C(=O)N[C@@H](CCC(=O)O)C(=O)O)C(C)C)C(C)C (H-TTIMAKNEVFCVQPE-OH; N-terminus and C-terminus assumed) |  | 3730 | 
